Reference: the NIST ThermoML archive (doi:10.1016/j.jct.2014.01.030)

Experiment: xn = mol fraction of the nth substance listed
Details: 101 kPa, Liquid; for speed of sound: Sing-around technique in a fixed-path interferometer; for mass density: Vibrating tube method

CCn1cc[n+](C)c1.COS(=O)(=O)[O-] [1-ethyl-3-methylimidazolium methylsulfate] + CC(C)O
Details | mass density, 288.15 K [kg/m3] | mass density, 298.15 K [kg/m3] | mass density, 308.15 K [kg/m3] | speed of sound, 288.15 K [m/s] | speed of sound, 298.15 K [m/s] | speed of sound, 308.15 K [m/s]
x2 = 0 | 1287.57 | 1280.81 | 1273.97 | 1781 | 1756 | 1732
x2 = 0.049 | 1277.61 | 1270.72 | 1263.87 | 1766 | 1741 | 1717
x2 = 0.101 | 1266.36 | 1259.44 | 1252.56 | 1749 | 1724 | 1700
x2 = 0.205 | 1240.88 | 1233.92 | 1227.01 | 1708 | 1683 | 1658
x2 = 0.307 | 1212.09 | 1205.09 | 1198.13 | 1659 | 1634 | 1609
x2 = 0.388 | 1185.23 | 1178.18 | 1171.15 | 1614 | 1588 | 1564
x2 = 0.505 | 1140.35 | 1133.21 | 1126.08 | 1541 | 1515 | 1490
x2 = 0.611 | 1091.15 | 1083.89 | 1076.62 | 1469 | 1443 | 1416
x2 = 0.705 | 1039.05 | 1031.61 | 1024.15 | 1402 | 1375 | 1348
x2 = 0.805 | 972.17 | 964.55 | 956.84 | 1326 | 1298 | 1269
x2 = 0.902 | 891.92 | 884.06 | 876.06 | 1252 | 1221 | 1190
x2 = 0.953 | 842.51 | 834.48 | 826.24 | 1214 | 1181 | 1148

CCn1cc[n+](C)c1.COS(=O)(=O)[O-] [1-ethyl-3-methylimidazolium methylsulfate] + CCC(C)O
Details | mass density, 288.15 K [kg/m3] | mass density, 298.15 K [kg/m3] | mass density, 308.15 K [kg/m3] | speed of sound, 288.15 K [m/s] | speed of sound, 298.15 K [m/s] | speed of sound, 308.15 K [m/s]
x2 = 0 | 1287.57 | 1280.81 | 1273.97 | 1781 | 1756 | 1732
x2 = 0.054 | 1274.82 | 1267.9 | 1261.04 | 1762 | 1738 | 1714
x2 = 0.106 | 1261.26 | 1254.37 | 1247.52 | 1743 | 1718 | 1693
x2 = 0.204 | 1233.86 | 1226.94 | 1220.05 | 1698 | 1673 | 1649
x2 = 0.306 | 1201.1 | 1194.21 | 1187.37 | 1644 | 1619 | 1594
x2 = 0.405 | 1165.21 | 1158.22 | 1151.25 | 1587 | 1562 | 1536
x2 = 0.507 | 1122.93 | 1115.87 | 1108.83 | 1527 | 1501 | 1475
x2 = 0.608 | 1075.89 | 1068.69 | 1061.49 | 1467 | 1440 | 1414
x2 = 0.713 | 1019.51 | 1012.15 | 1004.76 | 1406 | 1378 | 1350
x2 = 0.801 | 964.94 | 957.44 | 949.85 | 1356 | 1326 | 1297
x2 = 0.905 | 890.81 | 883.1 | 875.21 | 1299 | 1267 | 1235
x2 = 0.948 | 856.61 | 848.81 | 840.73 | 1277 | 1244 | 1210

CCn1cc[n+](C)c1.COS(=O)(=O)[O-] [1-ethyl-3-methylimidazolium methylsulfate] + CCCCCO
Details | mass density, 288.15 K [kg/m3] | mass density, 298.15 K [kg/m3] | mass density, 308.15 K [kg/m3] | speed of sound, 288.15 K [m/s] | speed of sound, 298.15 K [m/s] | speed of sound, 308.15 K [m/s]
x2 = 0 | 1287.57 | 1280.81 | 1273.97 | 1781 | 1756 | 1732
x2 = 0.057 | 1271.79 | 1264.9 | 1258.06 | 1759 | 1734 | 1710
x2 = 0.113 | 1255.1 | 1248.21 | 1241.74 | 1733 | 1708 | 1684
x2 = 0.216 | 1221.14 | 1214.5 | 1207.89 | 1678 | 1652 | 1628
x2 = 0.306 | 1188.62 | 1181.87 | 1175.24 | 1627 | 1600 | 1576
x2 = 0.404 | 1150.41 | 1143.48 | 1136.6 | 1569 | 1544 | 1519
x2 = 0.51 | 1104.6 | 1097.6 | 1090.68 | 1511 | 1485 | 1459
x2 = 0.608 | 1058.29 | 1051.16 | 1043.98 | 1463 | 1435 | 1408
x2 = 0.716 | 1001.72 | 994.56 | 987.39 | 1413 | 1385 | 1357
x2 = 0.801 | 952.72 | 945.38 | 938.08 | 1378 | 1349 | 1320
x2 = 0.9 | 889.67 | 882.45 | 875.19 | 1342 | 1311 | 1280
x2 = 0.956 | 851 | 843.78 | 836.48 | 1325 | 1292 | 1260

CCn1cc[n+](C)c1.COS(=O)(=O)[O-] [1-ethyl-3-methylimidazolium methylsulfate] + CCCO
Details | mass density, 288.15 K [kg/m3] | mass density, 298.15 K [kg/m3] | mass density, 308.15 K [kg/m3] | speed of sound, 288.15 K [m/s] | speed of sound, 298.15 K [m/s] | speed of sound, 308.15 K [m/s]
x2 = 0 | 1287.57 | 1280.81 | 1273.97 | 1781 | 1756 | 1732
x2 = 0.055 | 1277.08 | 1270.16 | 1263.29 | 1765 | 1741 | 1717
x2 = 0.104 | 1266.71 | 1259.77 | 1252.89 | 1750 | 1725 | 1701
x2 = 0.21 | 1241.65 | 1234.68 | 1227.75 | 1712 | 1687 | 1662
x2 = 0.307 | 1215.18 | 1208.16 | 1201.19 | 1671 | 1645 | 1620
x2 = 0.414 | 1181.08 | 1174.01 | 1166.97 | 1617 | 1592 | 1567
x2 = 0.519 | 1141.11 | 1133.94 | 1126.8 | 1559 | 1533 | 1507
x2 = 0.62 | 1095.52 | 1088.26 | 1081.02 | 1498 | 1471 | 1445
x2 = 0.718 | 1042.21 | 1034.8 | 1027.38 | 1435 | 1407 | 1380
x2 = 0.81 | 981.73 | 974.16 | 966.57 | 1373 | 1344 | 1315
x2 = 0.907 | 903.61 | 895.88 | 888.1 | 1307 | 1276 | 1245
x2 = 0.954 | 858.4 | 850.58 | 842.66 | 1276 | 1243 | 1211

CCn1cc[n+](C)c1.COS(=O)(=O)[O-] [1-ethyl-3-methylimidazolium methylsulfate] + CCO
Details | mass density, 288.15 K [kg/m3] | mass density, 298.15 K [kg/m3] | mass density, 308.15 K [kg/m3] | speed of sound, 288.15 K [m/s] | speed of sound, 298.15 K [m/s] | speed of sound, 308.15 K [m/s]
x2 = 0 | 1287.57 | 1280.81 | 1273.97 | 1781 | 1756 | 1732
x2 = 0.05 | – | 1273.01 | 1266.14 | – | 1744 | 1720
x2 = 0.0501 | 1279.94 | – | – | 1769 | – | –
x2 = 0.1018 | 1271.31 | – | – | 1756 | – | –
x2 = 0.102 | – | 1264.42 | 1257.55 | – | 1731 | 1707
x2 = 0.197 | – | 1246.51 | 1239.58 | – | 1704 | 1679
x2 = 0.1972 | 1253.48 | – | – | 1728 | – | –
x2 = 0.3098 | 1228.51 | – | – | 1690 | – | –
x2 = 0.31 | – | 1221.47 | 1214.47 | – | 1665 | 1640
x2 = 0.391 | – | 1199.39 | 1192.33 | – | 1630 | 1605
x2 = 0.3913 | 1206.5 | – | – | 1656 | – | –
x2 = 0.503 | 1170.26 | 1163.02 | 1155.75 | 1600 | 1574 | 1549
x2 = 0.6129 | 1125.74 | – | – | 1532 | – | –
x2 = 0.613 | – | 1118.41 | 1111.08 | – | 1506 | 1480
x2 = 0.703 | – | 1071.36 | 1063.86 | – | 1440 | 1413
x2 = 0.7031 | 1078.87 | – | – | 1467 | – | –
x2 = 0.8087 | 1007.23 | – | – | 1376 | – | –
x2 = 0.809 | – | 999.5 | 991.73 | – | 1348 | 1321
x2 = 0.901 | – | 914.27 | 906.19 | – | 1256 | 1226
x2 = 0.9011 | 922.29 | – | – | 1286 | – | –
x2 = 0.948 | – | 859.57 | 851.28 | – | 1206 | 1175
x2 = 0.9482 | 867.78 | – | – | 1238 | – | –

CCn1cc[n+](C)c1.COS(=O)(=O)[O-] [1-ethyl-3-methylimidazolium methylsulfate] + CO
Details | mass density, 288.15 K [kg/m3] | mass density, 298.15 K [kg/m3] | mass density, 308.15 K [kg/m3] | speed of sound, 288.15 K [m/s] | speed of sound, 298.15 K [m/s] | speed of sound, 308.15 K [m/s]
x2 = 0 | 1287.57 | 1280.81 | 1273.97 | 1781 | 1756 | 1732
x2 = 0.0515 | 1282.18 | 1275.24 | 1268.37 | 1772 | 1748 | 1724
x2 = 0.1025 | 1276.36 | 1269.42 | 1262.52 | 1763 | 1739 | 1715
x2 = 0.1919 | 1265.13 | 1258.14 | 1251.2 | 1747 | 1722 | 1698
x2 = 0.3013 | 1247.5 | 1240.45 | 1233.43 | 1720 | 1695 | 1670
x2 = 0.4032 | 1227.98 | 1220.84 | 1213.74 | 1690 | 1665 | 1640
x2 = 0.5038 | 1203.27 | 1196.01 | 1188.8 | 1653 | 1628 | 1602
x2 = 0.604 | 1170.7 | 1163.31 | 1155.94 | 1605 | 1578 | 1553
x2 = 0.7023 | 1127.32 | 1119.71 | 1112.12 | 1541 | 1514 | 1487
x2 = 0.8003 | 1065.67 | 1057.76 | 1049.86 | 1452 | 1424 | 1397
x2 = 0.9049 | 962.26 | 953.82 | 945.37 | 1316 | 1286 | 1258
x2 = 0.9515 | 893.83 | 885.04 | 876.21 | 1237 | 1206 | 1176
